Source: patent publication US20210292330A1, “PYRROLIDINE-FUSED HETEROCYCLES” (Erasca, Inc., priority 2020, published 2021)

Target: T1, KRAS 4B G12C protein (Homo sapiens, UniProt P01116, G12C)
T1 construct: This protein contained 188 amino acids in total, including an N-terminal 6-Histidine tag; made in house; host or cells: E. coli BL21
Assay: In vitro covalent adduct formation (CAF) assay by LC-MS
Type: binding
Conditions: compound 10 μM, protein 5 μM, 22° C., percentage of protein bound by the compound
In short: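 Percent of protein covalently modified was quantified from intact-mass LC-MS ratios of free versus adducted protein, adducts within 1 Da of expected mass. Reactions: 10 μM compound, 5 μM His-TEV-KRAS 4B G12C (1-169) in TBS pH 7.4, 4% DMSO, 22° C., one hour, run in duplicate.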

Compound | CAF (10 minutes/60 minutes) at 10 micromolar: 10 minutes | CAF (10 minutes/60 minutes) at 10 micromolar: 60 minutes
C=CC(=O)N1CCN(c2nc(OC[C@@H]3CCCN3C)nc3c2CN(Cc2cc(O)ccc2Cl)C3)CC1 [1-165] | 88% | 96%
C=CC(=O)N1CCN(c2nc(Oc3cccc4ccn(C)c34)nc3c2CN(C2CCc4ccccc42)C3)C[C@@H]1CC#N (stereo partly drawn) [1-166] | 2% | 15%
C=C(F)C(=O)N1CCN(c2nc(OCCC(F)F)nc3c2CN(C2CCc4ccccc42)C3)C[C@@H]1CC#N (stereo partly drawn) [1-167] |  | NA/ 0%
C=CC(=O)N1CCN(c2nc(OC[C@@H]3CCCN3C)nc3c2CN(Cc2ccccc2C(C)C)C3)C[C@@H]1CC#N [1-168] | 95% | 97%
C=CC(=O)N1CCN(c2nc(OC[C@@H]3CCCN3C)nc3c2CN(C2CC(C)(C)c4ccccc42)C3)C[C@@H]1CC#N (stereo partly drawn) [1-169] | 63% | 70%
C=CC(=O)N1CCN(c2nc(O[C@@H]3CN(C)C[C@H]3OC)nc3c2CN(C2CCc4ccccc42)C3)C[C@@H]1CC#N (stereo partly drawn) [1-170] | 31% | 53%
C=CC(=O)N1CCN(c2nc(Oc3cccc4c3CCN(C)C4)nc3c2CN(C2CCc4ccccc42)C3)C[C@@H]1CC#N (stereo partly drawn) [1-171] | 9% | 29%
C=CC(=O)N1CCN(c2nc(OC[C@@H]3CCCN3C)nc3c2CN(Cc2cc(F)ccc2C(C)C)C3)C[C@@H]1CC#N [1-172] | 68% | 73%
C=CC(=O)N1CCN(c2nc(Oc3cccnc3C3CC3)nc3c2CN(C2CCc4ccccc42)C3)C[C@@H]1CC#N (stereo partly drawn) [1-173] | 6% | 24%
C=CC(=O)N1CCN(c2nc(Oc3cccc4c3CN(C)C4)nc3c2CN(C2CCc4ccccc42)C3)C[C@@H]1CC#N (stereo partly drawn) [1-174] | 9% | 28%
C=CC(=O)N1CCN(c2nc(OC[C@@H]3CCCN3CC)nc3c2CN(C2CCc4ccccc42)C3)C[C@@H]1CC#N (stereo partly drawn) [1-175] | 60% | 82%
C=CC(=O)N1CCN(c2nc(OC[C@@H]3CCCN3C(C)C)nc3c2CN(C2CCc4ccccc42)C3)C[C@@H]1CC#N (stereo partly drawn) [1-176] | 88% | 94%
C=CC(=O)N1CCN(c2nc(OC[C@@H]3CCCN3C)nc3c2CN(Cc2cc(O)cc4ccccc24)C3)C[C@@H]1CC#N [1-180] | 94% | 96%
C=CC(=O)N1CCN(c2nc(OC[C@@H]3CCCN3C)nc3c2C(C(F)(F)F)N(Cc2ccccc2)C3)C[C@@H]1CC#N (stereo partly drawn) [1-181, 2-((2S)-1-acryloyl-4-(6-benzyl-2-(((S)-1-methylpyrrolidin-2-yl)methoxy)-5-(trifluoromethyl)-6,7-dihydro-5H-pyrrolo[3,4-d]pyrimidin-4-yl)piperazin-2-yl)acetonitrile] | 0%/ 0% | 0%/ 0%
C=CC(=O)N1CCN(c2nc(OC[C@@H]3CCCN3C)nc3c2CN(C2CCc4ccccc42)C3)[C@H](C(N)=O)C1 (stereo partly drawn) [1-182] | 7% | 30%
C=CC(=O)N1CCN(c2nc(OC[C@@H]3CCCN3C)nc3c2CN(Cc2c(Cl)c(F)cc4[nH]ncc24)C3)C[C@@H]1CC#N [1-183] | 63% | 93%
C=CC(=O)N1CCN(c2nc(OC[C@@H]3CCCN3C)nc3c2CN(Cc2cc(O)ccc2CC)C3)C[C@@H]1CC#N [1-184] | 96% | 97%
C=CC(=O)N1CCN(c2nc(OC[C@@H]3CCCN3C)nc3c2CN(Cc2cc(O)ccc2C(C)C)C3)C[C@@H]1CC#N [1-185] | 96% | 97%
C=CC(=O)N1CCN(c2nc(OC[C@@H]3CCCN3C)nc3c2CN(C2CC(C)(C)c4ccc(OC)cc42)C3)C[C@@H]1CC#N (stereo partly drawn) [1-186] | 14% | 36%
C=CC(=O)N1CCN(c2nc(OC[C@@H]3CCCN3C)nc3c2CN(Cc2ccccc2C(C)(C)C)C3)C[C@@H]1CC#N [1-187] | 94% | 95%
C=CC(=O)N1CCN(c2nc(OC[C@@H]3CCCN3C)nc3c2CN(Cc2ccccc2C(C)CC)C3)C[C@@H]1CC#N (stereo partly drawn) [1-188] | 47% | 79%

Compound | CAF (10 minutes/60 minutes) at 10 micromolar: 10 minutes | CAF (10 minutes/60 minutes) at 10 micromolar: 60 minutes
C=CC(=O)N1CCN(c2nc(OC[C@@H]3CCCN3C)nc3c2CN(C(C)c2ccccc2C(C)C)C3)C[C@@H]1CC#N (stereo partly drawn) [1-189] | 57% | 61%
C=CC(=O)N1CCN(c2nc(OC[C@@H]3CCCN3C)nc3c2CN(C2CCc4ccccc42)C3)CC1 (stereo partly drawn) [1-190] | 6% | 26%
C=CC(=O)N1CCN(c2nc(OC[C@@H]3CCCN3C)nc3c2CN(Cc2ccccc2CC(C)C)C3)C[C@@H]1CC#N [1-191] | 52% | 73%
C=CC(=O)N1CCN(c2nc(OC[C@@H]3CCCN3CC(C)C)nc3c2CN(C2CCc4ccccc42)C3)C[C@@H]1CC#N (stereo partly drawn) [1-192] | 53% | 65%
C=CC(=O)N1CCN(c2nc(OC[C@@H]3CCCN3C)nc3c2CN(C2CCc4ccccc42)C3)[C@@H](C(N)=O)C1 (stereo partly drawn) [1-193] | 7% | 31%
C=CC(=O)N1CCN(c2nc(OC[C@@H]3CCCN3C)nc3c2CN(C2CC(C)(C)c4ccc(O)cc42)C3)C[C@@H]1CC#N (stereo partly drawn) [1-194] | 32%/ 32% | 32%/ 32%
C=CC(=O)N1CCN(c2nc(OC[C@@H]3CCCN3C)nc3c2CN(C2CCc4ccccc42)C3)C[C@@H]1CSC (stereo partly drawn) [1-195] | 0% | 2%
C=CC(=O)N1CCN(c2nc(OC[C@@H]3CCCN3C)nc3c2CN(Cc2ccc(F)cc2C(C)C)C3)C[C@@H]1CC#N [1-196] | 41% | 52%
C=CC(=O)N1CCN(c2nc(-c3nnc(C)o3)nc3c2CN(C2CCc4ccccc42)C3)C[C@@H]1CC#N (stereo partly drawn) [1-197, 2-((2S)-1-acryloyl-4-(6-(2,3-dihydro-1H-inden-1-yl)-2-(5-methyl-1,3,4-oxadiazol-2-yl)-6,7-dihydro-5H-pyrrolo[3,4-d]pyrimidin-4-yl)piperazin-2-yl)acetonitrile] | 24% | 52%
C=CC(=O)N1CCN(c2nc(OC[C@@H]3CCCN3C3CC3)nc3c2CN(C2CCc4ccccc42)C3)C[C@@H]1CC#N (stereo partly drawn) [1-198, 2-((2S)-1-acryloyl-4-(2-(((S)-1-cyclopropylpyrrolidin-2-yl)methoxy)-6-(2,3-dihydro-1H-inden-1-yl)-6,7-dihydro-5H-pyrrolo[3,4-d]pyrimidin-4-yl)piperazin-2-yl)acetonitrile] | 15% | 18%
C=CC(=O)N1CCN(c2nc(OC[C@@H]3CCCN3Cc3ccccc3)nc3c2CN(C2CCc4ccccc42)C3)C[C@@H]1CC#N (stereo partly drawn) [1-199] | 62% | 74%
C=CC(=O)N1CCN(c2nc(OC[C@@H]3CCCN3C)nc3c2CN(C2CCc4ccccc42)C3)C[C@@H]1CS(C)(=O)=O (stereo partly drawn) [1-200] | 0% | 2%
C=CC(=O)N1CCN(c2nc(OC[C@@H]3CCCN3C)nc3c2CN(Cc2cccc4nc[nH]c24)C3)C[C@@H]1CC#N [1-201] | 79% | 94%
C=CC(=O)N1CCN(c2nc(OC[C@@H]3CCCN3C(C)(C)C)nc3c2CN(C2CCc4ccccc42)C3)C[C@@H]1CC#N (stereo partly drawn) [1-202] | 82% | 89%
C=CC(=O)N1CCN(c2nc(OC[C@@H]3CCCN3C)nc3c2CN(Cc2cccc4ncoc24)C3)C[C@@H]1CC#N [1-203] | 11% | 52%
C=CC(=O)N1CCN(c2nc(OC[C@@H]3CCCN3C)nc3c2CN(Cc2cccc4ocnc24)C3)C[C@@H]1CC#N [1-204] | 46% | 84%
C=CC(=O)N1CCN(c2nc(OC[C@@H]3CCCN3C)nc3c2CN(Cc2ccccc2CCC)C3)C[C@@H]1CC#N [1-206] | 86% | 94%
C=CC(=O)N1CCN(c2nc(Oc3cnc(N)nc3C3CC3)nc3c2CN(C2CCc4ccccc42)C3)C[C@@H]1CC#N (stereo partly drawn) [1-207] | 16% | 50%
C=CC(=O)N1CCN(c2nc(OC[C@@H]3CCCN3C3CC(=O)C3)nc3c2CN(C2CCc4ccccc42)C3)C[C@@H]1CC#N (stereo partly drawn) [1-208] | 0% | 18%
C=CC(=O)N1CCN(c2nc(OC[C@@H]3CCCN3C)nc3c2CN(C2CCc4ccccc42)C3)C[C@@H]1C[S+](C)[O-] (stereo partly drawn) [1-209] | 0%/ 0% | 0%/ 0%
